In brackets after ≈: the same amount, converted by molar mass. Activity calls are given as the source filed them. No cut-off for these calls is given here.
Assays:
[1] = test system: Staphylococcus aureus; assay: Antibacterial activity against Staphylococcus aureus ATCC 25923 assessed as reduction on bacterial count at 6X MIC incubated for 24 hrs by time killing assay; type: functional
[2] = test system: Staphylococcus aureus; assay: Antibacterial activity against methicillin-resistant Staphylococcus aureus BNCC 337371 assessed as bacterial growth inhibition incubated for 18 to 24 hrs by microtiter dilution method; type: functional; details: time 18-24 hrs
[3] = test system: Staphylococcus epidermidis; assay: Antibacterial activity against methicillin-resistant Staphylococcus epidermidis ATCC 51625 assessed as bacterial growth inhibition incubated for 18 to 24 hrs by microtiter dilution method; type: functional; details: time 18-24 hrs
[4] = test system: Staphylococcus aureus; assay: Antibacterial activity against Staphylococcus aureus ATCC 25923 assessed as bacterial growth inhibition incubated for 18 to 24 hrs by microtiter dilution method; type: functional; details: time 18-24 hrs
[5] = test system: Bacillus subtilis; assay: Antibacterial activity against Bacillus subtilis assessed as bacterial growth inhibition incubated for 18 to 24 hrs by microtiter dilution method; type: functional; details: time 18-24 hrs
[6] = test system: Staphylococcus aureus; assay: Antibacterial activity against methicillin-resistant Staphylococcus aureus BNCC 337371 assessed as reduction on bacterial count at 6X MIC incubated for 24 hrs by time killing assay; type: functional
[7] = test system: Escherichia coli; assay: Antibacterial activity against Escherichia coli CICC 10389 assessed as bacterial growth inhibition incubated for 18 to 24 hrs by microtiter dilution method; type: functional; details: time 18-24 hrs
[8] = test system: Enterococcus faecalis; assay: Antibacterial activity against Enterococcus faecalis assessed as bacterial growth inhibition incubated for 18 to 24 hrs by microtiter dilution method; type: functional; details: time 18-24 hrs
[9] = test system: Staphylococcus aureus; assay: Antibacterial activity against methicillin-resistant Staphylococcus aureus BNCC 337371 infected in Kunming mouse lung assessed as reduction on bacterial growth at 15 mg/kg,ip dosed measured after 7 days by 10-fold dilution method; type: functional; details: time 7 day
[10] = test system: Staphylococcus aureus; assay: Antibacterial activity against methicillin-resistant Staphylococcus aureus BNCC 337371 infected in Kunming mouse assessed as reduction on bacterial growth by measuring survival rate at ip dosed measured after 7 days by Bliss method; type: functional; details: BNCC 337371, 168 h, time 7 day
[11] = test system: Staphylococcus aureus; assay: Antibacterial activity against methicillin-resistant Staphylococcus aureus BNCC 337371 infected in Kunming mouse lung assessed as reduction on alveolar diaphragm thickening at 40 mg/kg,ip measured after 7 days by hematoxylin and eosin staining based light microscopic analysis; type: functional, organism-based; details: time 7.0 day
[12] = test system: Staphylococcus aureus; assay: Antibacterial activity against methicillin-resistant Staphylococcus aureus BNCC 337371 infected in Kunming mouse lung assessed as reduction on pulmonary fibrosis at 15 mg/kg,ip measured after 7 days by hematoxylin and eosin staining based light microscopic analysis; type: functional, organism-based; details: time 7.0 day
[13] = test system: Staphylococcus aureus; assay: Antibacterial activity against methicillin-resistant Staphylococcus aureus BNCC 337371 infected in Kunming mouse lung assessed as reduction on lymphocyte infiltration at 40 mg/kg,ip measured after 7 days by hematoxylin and eosin staining based light microscopic analysis; type: functional, organism-based; details: time 7.0 day
[14] = test system: Staphylococcus aureus; assay: Antibacterial activity against methicillin-resistant Staphylococcus aureus BNCC 337371 infected in Kunming mouse lung assessed as reduction on lymphocyte infiltration at 15 mg/kg,ip measured after 7 days by hematoxylin and eosin staining based light microscopic analysis; type: functional, organism-based; details: time 7.0 day
[15] = test system: Staphylococcus aureus; assay: Antibacterial activity against methicillin-resistant Staphylococcus aureus BNCC 337371 infected in Kunming mouse lung assessed as reduction on neutrophil infiltration at 40 mg/kg,ip measured after 7 days by hematoxylin and eosin staining based light microscopic analysis; type: functional, organism-based; details: time 7.0 day
[16] = test system: Staphylococcus aureus; assay: Antibacterial activity against methicillin-resistant Staphylococcus aureus BNCC 337371 infected in Kunming mouse lung assessed as reduction on alveolar diaphragm thickening at 15 mg/kg,ip measured after 7 days by hematoxylin and eosin staining based light microscopic analysis; type: functional, organism-based; details: time 7.0 day
[17] = test system: Staphylococcus aureus; assay: Antibacterial activity against methicillin-resistant Staphylococcus aureus BNCC 337371 infected in Kunming mouse lung assessed as reduction on neutrophil infiltration at 15 mg/kg,ip measured after 7 days by hematoxylin and eosin staining based light microscopic analysis; type: functional, organism-based; details: time 7.0 day
[18] = test system: Staphylococcus aureus; assay: Antibacterial activity against methicillin-resistant Staphylococcus aureus BNCC 337371 infected in Kunming mouse lung assessed as reduction on bacterial growth at 40 mg/kg,ip dosed measured after 7 days by 10-fold dilution method; type: functional; details: time 7 day
[19] = test system: Staphylococcus aureus; assay: Antibacterial activity against methicillin-resistant Staphylococcus aureus BNCC 337371 infected in Kunming mouse liver assessed as reduction on bacterial growth at 40 mg/kg,ip dosed measured after 7 days by 10-fold dilution method; type: functional, organism-based; details: time 7.0 day
[20] = test system: Staphylococcus aureus; assay: Antibacterial activity against methicillin-resistant Staphylococcus aureus BNCC 337371 infected in Kunming mouse kidney assessed as reduction on bacterial growth at 40 mg/kg,ip dosed measured after 7 days by 10-fold dilution method; type: functional; details: time 7 day

Compound: C=C[C@]1(C)C[C@@H](OC(=O)CS[C@@H]2C[C@H]3CC[C@@H](C2)N3C)[C@]2(C)[C@H](C)CC[C@]3(CCC(=O)[C@H]32)[C@@H](C)[C@@H]1O [RETAPAMULIN]
- Activity [1]: 2.25 log10CFU/ml
- MIC [2]: 0.125 µg/mL (≈ 0.241 µM)
- MIC [3]: 0.125 µg/mL (≈ 0.241 µM)
- MIC [4]: 0.25 µg/mL (≈ 0.483 µM)
- MIC [5]: 8 µg/mL (≈ 15.5 µM)
- Activity [6]: 3.3 log10CFU/ml
- MIC [7]: > 16 µg/mL
- MIC [8]: > 16 µg/mL

Compound: C=C[C@]1(C)C[C@@H](OC(=O)CSC2=NC(C)=C(C(=O)OC(C)CC)C(C)N2)[C@]2(C)[C@H](C)CC[C@]3(CCC(=O)[C@H]32)[C@@H](C)[C@@H]1O (stereo partly drawn)
- MIC [2]: 0.5 µg/mL (≈ 0.829 µM)
- MIC [3]: 1 µg/mL (≈ 1.66 µM)
- MIC [4]: 0.5 µg/mL (≈ 0.829 µM)
- MIC [5]: > 16 µg/mL
- MIC [7]: > 16 µg/mL
- MIC [8]: > 16 µg/mL

Compound: C=C[C@]1(C)C[C@@H](OC(=O)CSC2=NC(CCC)=C(C(=O)OC)C(C)N2)[C@]2(C)[C@H](C)CC[C@]3(CCC(=O)[C@H]32)[C@@H](C)[C@@H]1O (stereo partly drawn)
- MIC [2]: 8 µg/mL (≈ 13.6 µM)
- MIC [3]: 4 µg/mL (≈ 6.79 µM)
- MIC [4]: 4 µg/mL (≈ 6.79 µM)
- MIC [5]: 16 µg/mL (≈ 27.2 µM)
- MIC [7]: > 16 µg/mL
- MIC [8]: > 16 µg/mL

Compound: C=C[C@]1(C)C[C@@H](OC(=O)CSc2nc(C)c(C(C)=O)c(C)n2)[C@]2(C)[C@H](C)CC[C@]3(CCC(=O)[C@H]32)[C@@H](C)[C@@H]1O
- Activity [1]: Active
- MIC [2]: ≤ 0.0156 µg/mL
- MIC [3]: 0.0313 µg/mL (≈ 0.0577 µM)
- MIC [4]: ≤ 0.0156 µg/mL
- MIC [5]: 1 µg/mL (≈ 1.84 µM)
- Activity [6]: Active
- MIC [7]: > 16 µg/mL
- MIC [8]: > 16 µg/mL

Compound: C=C[C@]1(C)C[C@@H](OC(=O)CSc2nc(C)c(C(=O)OC)c(CCC)n2)[C@]2(C)[C@H](C)CC[C@]3(CCC(=O)[C@H]32)[C@@H](C)[C@@H]1O
- MIC [2]: 0.125 µg/mL (≈ 0.213 µM)
- MIC [3]: 0.0625 µg/mL (≈ 0.107 µM)
- MIC [4]: 0.25 µg/mL (≈ 0.426 µM)
- MIC [5]: 16 µg/mL (≈ 27.3 µM)
- MIC [7]: > 16 µg/mL
- MIC [8]: > 16 µg/mL

Compound: C=C[C@]1(C)C[C@@H](OC(=O)CSCCN(CC)CC)[C@]2(C)[C@H](C)CC[C@]3(CCC(=O)[C@H]32)[C@@H](C)[C@@H]1O.O=C(O)/C=C/C(=O)O [TIAMULIN FUMARATE]
- Activity [9]: 1.68 log10CFU/ml
- MIC [2]: 0.5 µg/mL
- ED50 [10]: 22.9 mg/kg
- MIC [3]: 0.5 µg/mL
- MIC [4]: 0.5 µg/mL
- MIC [5]: > 16 µg/mL
- Activity [11]: Active
- Activity [12]: Active
- Activity [13]: Active
- Activity [14]: Active
- Activity [15]: Active
- Activity [16]: Active
- MIC [7]: > 16 µg/mL
- MIC [8]: > 16 µg/mL
- Activity [17]: Active
- Activity [18]: 2.56 log10CFU/ml

Compound: C=C[C@]1(C)C[C@@H](OC(=O)CSc2nc(C)c(C(=O)OCC)c(C)n2)[C@]2(C)[C@H](C)CC[C@]3(CCC(=O)[C@H]32)[C@@H](C)[C@@H]1O
- Activity [9]: 2.97 log10CFU/ml
- Activity [1]: 3.62 log10CFU/ml
- MIC [2]: ≤ 0.0156 µg/mL
- ED50 [10]: 16.1 mg/kg
- MIC [3]: ≤ 0.0156 µg/mL
- Activity [19]: Active
- MIC [4]: ≤ 0.0156 µg/mL
- MIC [5]: 4 µg/mL (≈ 6.98 µM)
- Activity [11]: Active
- Activity [6]: 2.44 log10CFU/ml
- Activity [20]: 3.24 log10CFU/ml
- Activity [13]: Active
- Activity [14]: Active
- Activity [15]: Active
- Activity [16]: Active
- MIC [7]: > 16 µg/mL
- MIC [8]: > 16 µg/mL
- Activity [17]: Active
- Activity [18]: 4.95 log10CFU/ml

Compound: C=C[C@]1(C)C[C@@H](OC(=O)CSC2=NC(CC(C)C)=C(C(=O)OC)C(C)N2)[C@]2(C)[C@H](C)CC[C@]3(CCC(=O)[C@H]32)[C@@H](C)[C@@H]1O (stereo partly drawn)
- MIC [2]: 0.5 µg/mL (≈ 0.829 µM)
- MIC [3]: 0.5 µg/mL (≈ 0.829 µM)
- MIC [4]: 1 µg/mL (≈ 1.66 µM)
- MIC [5]: > 16 µg/mL
- MIC [7]: > 16 µg/mL
- MIC [8]: > 16 µg/mL

Compound: C=C[C@]1(C)C[C@@H](OC(=O)CSc2nc(C)c(C(=O)OC)c(CC(C)C)n2)[C@]2(C)[C@H](C)CC[C@]3(CCC(=O)[C@H]32)[C@@H](C)[C@@H]1O
- MIC [2]: 0.25 µg/mL (≈ 0.416 µM)
- MIC [3]: 0.5 µg/mL (≈ 0.832 µM)
- MIC [4]: 0.25 µg/mL (≈ 0.416 µM)
- MIC [5]: > 16 µg/mL
- MIC [7]: > 16 µg/mL
- MIC [8]: > 16 µg/mL

Compound: C=CCOC(=O)c1c(C)nc(SCC(=O)O[C@@H]2C[C@@](C)(C=C)[C@@H](O)[C@H](C)[C@]34CCC(=O)[C@H]3[C@@]2(C)[C@H](C)CC4)nc1C
- MIC [2]: 1 µg/mL (≈ 1.71 µM)
- MIC [3]: 0.25 µg/mL (≈ 0.428 µM)
- MIC [4]: 0.125 µg/mL (≈ 0.214 µM)
- MIC [5]: 4 µg/mL (≈ 6.84 µM)
- MIC [7]: > 16 µg/mL
- MIC [8]: > 16 µg/mL

Compound: C=C[C@]1(C)C[C@@H](OC(=O)CSC2=NC(C)=C(C(=O)OCCC)C(C)N2)[C@]2(C)[C@H](C)CC[C@]3(CCC(=O)[C@H]32)[C@@H](C)[C@@H]1O (stereo partly drawn)
- MIC [2]: 0.5 µg/mL (≈ 0.849 µM)
- MIC [3]: 0.5 µg/mL (≈ 0.849 µM)
- MIC [4]: 0.25 µg/mL (≈ 0.425 µM)
- MIC [5]: > 16 µg/mL
- MIC [7]: > 16 µg/mL
- MIC [8]: > 16 µg/mL

Compound: C=C[C@]1(C)C[C@@H](OC(=O)CSc2nc(C)c(C(=O)OC)c(CCCC)n2)[C@]2(C)[C@H](C)CC[C@]3(CCC(=O)[C@H]32)[C@@H](C)[C@@H]1O
- MIC [2]: 4 µg/mL (≈ 6.66 µM)
- MIC [3]: 0.5 µg/mL (≈ 0.832 µM)
- MIC [4]: 2 µg/mL (≈ 3.33 µM)
- MIC [5]: > 16 µg/mL
- MIC [7]: > 16 µg/mL
- MIC [8]: > 16 µg/mL

Compound: C=C[C@]1(C)C[C@@H](OC(=O)CSC2=NC(C)=C(C(=O)OC)C(C)N2)[C@]2(C)[C@H](C)CC[C@]3(CCC(=O)[C@H]32)[C@@H](C)[C@@H]1O (stereo partly drawn)
- MIC [2]: 0.25 µg/mL (≈ 0.446 µM)
- MIC [3]: 0.125 µg/mL (≈ 0.223 µM)
- MIC [4]: 0.25 µg/mL (≈ 0.446 µM)
- MIC [5]: 8 µg/mL (≈ 14.3 µM)
- MIC [7]: > 16 µg/mL
- MIC [8]: > 16 µg/mL

Compound: C=C[C@]1(C)C[C@@H](OC(=O)CSc2nc(C)c(C(=O)OC)c(C)n2)[C@]2(C)[C@H](C)CC[C@]3(CCC(=O)[C@H]32)[C@@H](C)[C@@H]1O
- Activity [1]: Active
- MIC [2]: ≤ 0.0156 µg/mL
- MIC [3]: 0.0313 µg/mL (≈ 0.056 µM)
- MIC [4]: ≤ 0.0156 µg/mL
- MIC [5]: 2 µg/mL (≈ 3.58 µM)
- Activity [6]: Active
- MIC [7]: > 16 µg/mL
- MIC [8]: > 16 µg/mL

— ChEMBL document CHEMBL5120841, “Discovery of novel pleuromutilin derivatives as potent antibacterial agents” (2022)
